Results on four compounds are retold here after US20170105969A1, “CENICRIVIROC FOR THE TREATMENT OF HIV-2 INFECTION” (Tobira Therapeutics, Inc., priority 2014, published 2017).

The target in one data set is T1, CCR2 (Homo sapiens, UniProt P41597).
T1 construct: endogenous in cells; host or cells: monocytes within PBMCs from 5 HIV+ and 5 HIV- subjects
T1 sequence (P41597 1-360 isoform P41597-2): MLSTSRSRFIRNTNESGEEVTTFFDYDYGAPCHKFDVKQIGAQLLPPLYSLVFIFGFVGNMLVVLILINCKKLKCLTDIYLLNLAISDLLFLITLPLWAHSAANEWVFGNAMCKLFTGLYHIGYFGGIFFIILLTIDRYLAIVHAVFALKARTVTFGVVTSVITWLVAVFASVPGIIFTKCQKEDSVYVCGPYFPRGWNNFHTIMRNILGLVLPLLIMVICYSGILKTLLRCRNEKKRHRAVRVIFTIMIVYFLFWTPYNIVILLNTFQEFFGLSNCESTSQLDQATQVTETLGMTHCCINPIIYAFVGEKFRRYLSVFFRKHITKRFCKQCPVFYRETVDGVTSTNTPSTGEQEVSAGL
Nature of the data set: CCR2 receptor occupancy / internalization in PBMCs (monocytes) by flow cytometry. The format is cell-based. The method, then:
(§1) The capacity of each drug to inhibit CCR5 or CCR2 internalization was evaluated. Cell-surface expression of CCR5 and CCR2 was assessed by flow cytometry, and fluorescence values were converted into molecules of equivalent soluble fluorescence (MESF).
In general terms: Flow cytometry measures light scatter and fluorescence of single cells or particles in a stream.

Data set [1] is described as follows: APRI and FIB-4 fibrosis scores, post-hoc analysis of Study 202. The format is in vivo, human. The protocol: Change in score category from baseline (BL) to Weeks 24 and 48 was assessed in patients with non-missing data. Correlations between changes from BL in APRI and FIB-4 scores, and MCP-1 (CCR2 ligand) and sCD14 (inflammatory biomarker) levels were evaluated.

For a further data set, the system named is HIV. Nature of the data set: Ex vivo intracellular HIV DNA (qPCR) in PBMCs of Study 202 subjects. To be noted: EFV 600 mg arm, Week 24. The method, then: (§2) Early (strong-stop) and late (full-length) reverse transcript levels were measured by qPCR. […] P24 and viral load levels were measured by ELISA and qRT-PCR after 4 hours.
(Real-time PCR tracks product formation cycle by cycle.)

For data set [2], the system named is HIV-1. Nature of the data set: Study 202: virologic response (plasma HIV-1 RNA <50 copies/mL), Snapshot algorithm, ITT. The format is in vivo, human. The following applies: Week 24; EFV arm. The text has this: The primary efficacy endpoint was the percentage of subjects with plasma HIV-1 RNA <50 copies/mL at Week 24 (using the FDA Snapshot algorithm and the ITT population).

Data set [3] deals with HIV-1. The description is as above. The format is in vivo, human. To be noted: for virologic non-response, subgroup with high baseline viral load (≧100,000 copies/mL): EFV.
Data set [4] is described as follows: Solubility of cenicriviroc mesylate. The format is physicochemical.
For the next data set, the target named is CCR5 (Homo sapiens, UniProt P51681). The data set is described as follows: CCR5 receptor occupancy / internalization in PBMCs by flow cytometry. The format is cell-based. The protocol: as §1
The next data set deals with CCR5-tropic HIV-1 BaL. The data set is described as follows: PM-1 cells infected with HIV-1 BaL, supernatant P24 and viral load after 4 hours. The format is cell-based. The following applies: CVC 20 nM or MVC 50 nM. The protocol:
as §2

Another data set has as its system HIV-2 clinical isolates. The data set is described as follows: HIV-2 phenotypic susceptibility, ANRS PBMC method. The format is cell-based. The method, then: All patients were infected with HIV-2 group A. Tropism was determined phenotypically using Ghost(3) cell lines expressing CD4 receptor and one HIV coreceptor, CCR5 or CXCR4. Both Ghost(3) cell lines carries a humanized green fluorescent protein (GFP) gene, under the control of a HIV-2 LTR. […] Ghost(3) cells were provided by the NIH AIDS Reagent program.
Briefly, cell-free HIV-2 positive supernatant was serially diluted (1, 10^−1, and 10^−2) and incubated with PBMC for viral titration. Viruses were tested at a 100 TCID50 titration. Cells were pre-incubated with cenicriviroc or maraviroc at an appropriate concentration 1 hour before viral infection. Six serial dilutions of the antiretroviral drug were tested in quadruplicate. On day 4, viral replication was assessed by a specific viral load assay (Generic HIV-2 viral load, Biocentric, France).

Data set [5] has as its system HIV-1. Nature of the data set: HIV-1 susceptibility to maraviroc, observed results. The format is cell-based. To be noted: HIV-1 (n = 4).
Data set [6] has as its system HIV-1. To be noted: HIV-1 (n = 43); Dorr et al. (2005); read-out: Median IC50; cited from earlier work.
The mark [7] stands for this setting: HIV-2 isolate 10-046, group A, R5.
Where [8] appears, read: HIV-2 isolate 10-051, group A, R5.
[9] abbreviates: HIV-2 isolate 10-055, group A, X4.
The mark [10] stands for this setting: HIV-2 isolate 10-056, group A, R5.
Setting [11] is: HIV-2 isolate 10-069, group A, Dual.
The mark [12] stands for this setting: HIV-2 isolate 10-074, group A, R5.
Setting [13] is: mixed R5/X4 HIV-2 clinical isolate, first of two.
Setting [14] is: mixed R5/X4 HIV-2 clinical isolate, second of two.

Where a name gives a salt, the structure may show the parent alone. Read-outs that look alike come from different tables or passages of the source. Marks after values point to notes of the source that are not given here. Some results are limits rather than exact numbers.

CCR5, sequence (P51681 whole entry): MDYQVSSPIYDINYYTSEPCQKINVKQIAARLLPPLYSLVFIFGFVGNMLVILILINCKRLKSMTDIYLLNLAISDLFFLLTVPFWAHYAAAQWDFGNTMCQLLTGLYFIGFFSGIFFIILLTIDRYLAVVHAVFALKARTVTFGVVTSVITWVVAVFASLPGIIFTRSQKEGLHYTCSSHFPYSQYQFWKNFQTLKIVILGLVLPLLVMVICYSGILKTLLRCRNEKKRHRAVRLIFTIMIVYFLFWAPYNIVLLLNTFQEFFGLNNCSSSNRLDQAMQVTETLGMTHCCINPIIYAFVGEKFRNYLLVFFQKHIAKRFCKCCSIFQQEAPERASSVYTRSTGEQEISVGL

With `CSc1ccc(C(=O)N[C@@H]2CCCC[C@@H]2NC(=O)CNC(=O)c2cc(C(F)(F)F)ccc2NC(=O)NC(C)C)cc1` [BMS-22, reference compound], at CCR2 (CCR2, monocytes), the “average concentration required to reach >80% receptor occupancy” value is listed as 18 nM. Also, the “CCR2 cell-surface expression (in words)” value on CCR2 (in the absence of MCP-1, monocytes) is reported as “slightly increased CCR2 cell-surface expression”.
As to `O=C1Nc2ccc(Cl)cc2[C@@](C#CC2CC2)(C(F)(F)F)O1` [EFV, efavirenz, reference compound], in data set [1] (Baseline), the “patients in APRI category 0.5-1.5” value amounted to 4%, the “patients in APRI category <0.5” value is reported as 96% and the “patients in FIB-4 category <1.45” value came to 100%. Besides, in [1] (Week 24), the “APRI: Decreased 1 category from baseline” value was 5%, the “patients in APRI category <0.5” value was 100% and the “patients in FIB-4 category <1.45” value is given as 100%. Moreover, in data set [1] (Week 48), the “APRI: Decreased 1 category from baseline” value is 6%, the “patients in APRI category <0.5” value came to 100%, the “patients in FIB-4 category 1.45-3.25” value was found to be 6% and the “patients in FIB-4 category <1.45” value is on record as 94%. Moreover, the “Strong-stop HIV DNA decline (marker of HIV entry)” value in the data set on HIV is reported as “no decline”. Moreover, in the data set on HIV-1 [2], the “Discontinued study due to AE or death” value is given as “(18%)” and the “HIV-1 RNA ≧50 but <400 copies/mL” value is “(4%)^f”. Further, in the data set with HIV-1 [3] (Week 24), the “virologic non-response, subgroup with high baseline viral load (≧100,000 copies/mL)” value came out at 25%. In the data set with HIV-1 [3] (Week 48), the “virologic non-response, subgroup with high baseline viral load (≧100,000 copies/mL)” value is 25%. The “Discontinued study due to AE or death” value with HIV-1 [3] (Week 48, EFV arm) is recorded as “(21%)”.
For the compound `CCCCOCCOc1ccc(-c2ccc3c(c2)C=C(C(=O)Nc2ccc([S@@+]([O-])Cc4cncn4CCC)cc2)CCCN3CC(C)C)cc1` [cenicriviroc mesylate, (S)-8-[4-(2-Butoxyethoxy)phenyl]-1-isobutyl-N-(4-{[(1-propyl-1H-imidazol-5-yl)methyl]sulfinyl}phenyl)-1,2,3,4-tetrahydro-1-benzazocine-5-carboxamide monomethanesulfonoate], the solubility result is “sparingly soluble” in data set [4] (99.5% ethanol); “slightly soluble” in data set [4] (acetonitrile, 1-octanol, tetrahydrofuran); “sparingly soluble” in [4] (aqueous solution at pH 3); “freely soluble” in data set [4] (aqueous solution from pH 1 to 2); “practically insoluble” in data set [4] (aqueous solution from pH 4 to 13 and in water); “practically insoluble” in [4] (ethyl acetate and diethylether). In addition, the solubility entry in data set [4] (glacial acetic acid, methanol, benzyl alcohol, dimethylsulfoxide, N,N-dimethylformamide) is given as “freely soluble”; in data set [4] (pyridine and acetic anhydride), “soluble”.
Take maraviroc [MVC]: the “CCR5 receptor occupancy at saturation” value on CCR5 (CD4+ T cells) is reported as about 86%; at CCR5 (CD8+ T cells), about 87%. Moreover, the “effective concentration at which saturation of CCR5 was reached” value on CCR5 (CD4+ T cells) and on CCR5 (CD8+ T cells) was 12.5 nM throughout. The “cell-surface expression of CCR5 (in words)” value at CCR5 (in the absence of RANTES, PBMCs) is listed as “increased cell-surface expression of CCR5”. Moreover, the “supernatant P24” value in the data set with CCR5-tropic HIV-1 BaL (0 hrs (baseline)) worked out at 506 ng/mL; in the data set with CCR5-tropic HIV-1 BaL (4 hrs) it was 520 ng/mL. Also, the values for the viral load with CCR5-tropic HIV-1 BaL (0 hrs) and with CCR5-tropic HIV-1 BaL (4 hrs) were 1.19×10^10 copies/ml and 1.67×10^10 copies/ml, respectively. Also, the “median MPI” value in the data set with HIV-2 clinical isolates (13 R5 HIV-2 clinical isolates) is on record as 93%; with HIV-2 clinical isolates (13 R5 HIV-2 clinical isolates, listed as maraviroc), 93%; in the data set with HIV-1 [5] it was 74%. For the same compound, the EC50 (as a rule, the concentration needed to bring the measured effect to its halfway point) is 1.13 nM in the data set on HIV-2 clinical isolates (setting [7]); 0.48 nM in the data set with HIV-2 clinical isolates (setting [8]); over 1000 nM in the data set with HIV-2 clinical isolates (setting [9]); 0.58 nM in the data set with HIV-2 clinical isolates (setting [10]); over 1000 nM in the data set on HIV-2 clinical isolates (setting [11]); 0.68 nM in the data set on HIV-2 clinical isolates (setting [12]). Further, the EC50 in the data set with HIV-2 clinical isolates (X4 HIV-2 clinical isolate) is over 1000 nM; with HIV-2 clinical isolates (setting [13]), 9.4 nM; in the data set on HIV-2 clinical isolates (setting [14]), over 1000 nM; in the data set with HIV-2 clinical isolates (read-out: median EC50, 13 R5 HIV-2 clinical isolates) it was 0.8 nM. The “MPI (%)” value in the data set with HIV-2 clinical isolates (setting [7]) was found to be 93%; in the data set with HIV-2 clinical isolates (setting [8]), 82%; in the data set with HIV-2 clinical isolates (setting [9]) it was 0%; with HIV-2 clinical isolates (setting [10]), 90%; in the data set on HIV-2 clinical isolates (setting [11]), 12%; in the data set with HIV-2 clinical isolates (setting [12]) it was 100%. Moreover, the MPI worked out at 0% in the data set on HIV-2 clinical isolates (X4 HIV-2 clinical isolate), 55% with HIV-2 clinical isolates (setting [13]) and 12% in the data set on HIV-2 clinical isolates (setting [14]). Further, the concentration for half-maximal inhibition (IC50) (usually the concentration that inhibits the measured activity by half) in the data set with HIV-2 clinical isolates (read-out: Median IC50, HIV-2 (n = 13), Observed Results) is 0.8 nM; in the data set with HIV-1 [5] (read-out: Median IC50) it was 2.4 nM; with HIV-1 [6], 0.4 nM.
